Measurements: the NIST ThermoML archive (doi:10.1021/je049777o)

Assay: xn = mol fraction of the nth substance listed
Settings: 101.3 kPa, Liquid

COC(=O)OC [dimethyl carbonate] + CCCCCC
Settings	mass density [kg/m3]	viscosity [mPa·s]
293.15 K, x1 = 0.0961	685.68	0.3032
293.15 K, x1 = 0.193	712.34	0.3094
293.15 K, x1 = 0.2909	741.99	0.3213
293.15 K, x1 = 0.3894	774.82	0.341
293.15 K, x1 = 0.489	811.38	0.3647
293.15 K, x1 = 0.5893	851.98	0.3939
293.15 K, x1 = 0.6906	897.34	0.427
293.15 K, x1 = 0.7928	948.58	0.4715
293.15 K, x1 = 0.896	1006.55	0.542
293.15 K, x1 = 1	1069.54	0.6173
298.15 K, x1 = 0.0961	680.92	0.2901
298.15 K, x1 = 0.193	707.38	0.294
298.15 K, x1 = 0.2909	736.8	0.306
298.15 K, x1 = 0.3894	769.42	0.3232
298.15 K, x1 = 0.489	805.8	0.3449
298.15 K, x1 = 0.5893	846.19	0.3709
298.15 K, x1 = 0.6906	891.45	0.4024
298.15 K, x1 = 0.7928	942.39	0.4472
298.15 K, x1 = 0.896	1000.17	0.5031
298.15 K, x1 = 1	1062.95	0.5734
303.15 K, x1 = 0.0961	676.14	0.279
303.15 K, x1 = 0.193	702.37	0.2817
303.15 K, x1 = 0.2909	731.62	0.2923
303.15 K, x1 = 0.3894	764.04	0.3061
303.15 K, x1 = 0.489	800.21	0.3252
303.15 K, x1 = 0.5893	840.41	0.3502
303.15 K, x1 = 0.6906	885.48	0.3808
303.15 K, x1 = 0.7928	936.19	0.4221
303.15 K, x1 = 0.896	993.78	0.4748
303.15 K, x1 = 1	1056.35	0.5403
313.15 K, x1 = 0.0961	666.41	0.2513
313.15 K, x1 = 0.193	692.21	0.2555
313.15 K, x1 = 0.2909	721.04	0.2645
313.15 K, x1 = 0.3894	753.05	0.277
313.15 K, x1 = 0.489	788.82	0.2938
313.15 K, x1 = 0.5893	828.62	0.3163
313.15 K, x1 = 0.6906	873.34	0.3417
313.15 K, x1 = 0.7928	923.65	0.3763
313.15 K, x1 = 0.896	980.84	0.4229
313.15 K, x1 = 1	1043.01	0.4807
323.15 K, x1 = 0.0961	656.55	0.2333
323.15 K, x1 = 0.193	681.9	0.2344
323.15 K, x1 = 0.2909	710.27	0.2423
323.15 K, x1 = 0.3894	741.92	0.2536
323.15 K, x1 = 0.489	777.28	0.2681
323.15 K, x1 = 0.5893	816.69	0.288
323.15 K, x1 = 0.6906	861.07	0.3101
323.15 K, x1 = 0.7928	910.98	0.3404
323.15 K, x1 = 0.896	967.8	0.3781
323.15 K, x1 = 1	1029.59	0.427
333.15 K, x1 = 0.0961	646.44	0.213
333.15 K, x1 = 0.193	671.36	0.2167
333.15 K, x1 = 0.2909	699.25	0.2239
333.15 K, x1 = 0.3894	730.55	0.234
333.15 K, x1 = 0.489	765.5	0.2466
333.15 K, x1 = 0.5893	804.52	0.2639
333.15 K, x1 = 0.6906	848.53	0.2842
333.15 K, x1 = 0.7928	898.13	0.3117
333.15 K, x1 = 0.896	954.54	0.3447
333.15 K, x1 = 1	1016	0.3893
